# Measured values reported in publication PMC6566410, “Novel Diamide-Based Benzenesulfonamides as Selective Carbonic Anhydrase IX Inhibitors Endowed with Antitumor Activity: Synthesis, Biological Evaluation and In Silico Insights” (International Journal of Molecular Sciences, 2019).
# Key:
# hCA XII = hCA XII (Homo sapiens, UniProt O43570); assay: stopped-flow CO2 hydrase assay; settings: for Selectivity ratio I/XII: KI hCA I / KI hCA XII; for Selectivity ratio II/XII: KI hCA II / KI hCA XII
# From the text: (§3) An Applied Photophysics stopped-flow instrument was used for assaying the CA catalysed CO2 hydration activity, as reported earlier [17]. The inhibition constants were obtained by non-linear least-squares methods using PRISM 3 and the Cheng-Prusoff equation as reported earlier, and represent the mean from at least three different determinations. The four tested CA isofoms were recombinant ones obtained in-house as reported earlier [26, 27, 28, 29].
# K-562 = assay: NCI one-dose SRB assay; type: cell-based; settings: Homo sapiens, K562, K-562 (Leukemia), 1.00E-5 Molar, read-out: Growth Percent
# Method: (§1) First, all diamide-based benzenesulfonamides herein reported 5a–h were screened for their antitumor activity at one dose (10^−5 M) assay against a panel of sixty cancer cell lines through the National Cancer Institute (NCI) Developmental Therapeutic Program (www.dtp.nci.nih.gov), according to US-NCI protocol. The cell growth and cell viability were evaluated using the sulforhodamine B (SRB) colorimetric assay.
# (§2) This assay was carried out according to the protocol of the Drug Evaluation Branch, NCI, Bethesda. The cell growth and cell viability were evaluated using the sulforhodamine B (SRB) colorimetric assay, as reported earlier.
# SW-620 = assay: NCI one-dose SRB assay; type: cell-based; settings: Homo sapiens, SW-620 (Colon Cancer), 1.00E-5 Molar, read-out: Growth Percent
# Method: as §1, §2
# LOX IMVI = assay: NCI one-dose SRB assay; type: cell-based; settings: Homo sapiens, LOX IMVI (Melanoma), 1.00E-5 Molar, read-out: Growth Percent
# Method: as §1, §2
# OVCAR-4 = assay: NCI one-dose SRB assay; type: cell-based; settings: Homo sapiens, OVCAR-4 (Ovarian Cancer), 1.00E-5 Molar, read-out: Growth Percent
# Method: as §1, §2
# OVCAR-5 = assay: NCI one-dose SRB assay; type: cell-based; settings: Homo sapiens, OVCAR-5 (Ovarian Cancer), 1.00E-5 Molar, read-out: Growth Percent
# Method: as §1, §2
# SK-MEL-28 = assay: NCI one-dose SRB assay; type: cell-based; settings: Homo sapiens, SK-MEL-28 (Melanoma), 1.00E-5 Molar, read-out: Growth Percent
# Method: as §1, §2
# MOLT-4 = assay: NCI one-dose SRB assay; type: cell-based; settings: Homo sapiens, MOLT-4 (Leukemia), 1.00E-5 Molar, read-out: Growth Percent
# Method: as §1, §2
# DU-145 = assay: NCI one-dose SRB assay; type: cell-based; settings: Homo sapiens, DU-145 (Prostate Cancer), 1.00E-5 Molar, read-out: Growth Percent
# Method: as §1, §2
# NCI/ADR-RES = assay: NCI one-dose SRB assay; type: cell-based; settings: Homo sapiens, NCI/ADR-RES (Ovarian Cancer), 1.00E-5 Molar, read-out: Growth Percent
# Method: as §1, §2
# T-47D = assay: NCI one-dose SRB assay; type: cell-based; settings: Homo sapiens, T47D, T-47D (Breast Cancer), 1.00E-5 Molar, read-out: Growth Percent
# Method: as §1, §2
# COLO 205 = assay: NCI one-dose SRB assay; type: cell-based; settings: Homo sapiens, COLO 205 (Colon Cancer), 1.00E-5 Molar, read-out: Growth Percent
# Method: as §1, §2
# U251 = assay: NCI one-dose SRB assay; type: cell-based; settings: Homo sapiens, U-251, U251 (CNS Cancer), 1.00E-5 Molar, read-out: Growth Percent
# Method: as §1, §2
# NCI-H522 = assay: NCI one-dose SRB assay; type: cell-based; settings: Homo sapiens, NCI-H522 (Non-Small Cell Lung Cancer), 1.00E-5 Molar, read-out: Growth Percent
# Method: as §1, §2
# MCF7 = assay: NCI one-dose SRB assay; type: cell-based; settings: Homo sapiens, MCF7 (Breast Cancer), 1.00E-5 Molar, read-out: Growth Percent
# Method: as §1, §2
# NCI-H23 = assay: NCI one-dose SRB assay; type: cell-based; settings: Homo sapiens, NCI-H23 (Non-Small Cell Lung Cancer), 1.00E-5 Molar, read-out: Growth Percent
# Method: as §1, §2
# MDA-MB-468 = assay: NCI one-dose SRB assay; type: cell-based; settings: Homo sapiens, MDA-MB-468 (Breast Cancer), 1.00E-5 Molar, read-out: Growth Percent
# Method: as §1, §2
# A498 = assay: NCI one-dose SRB assay; type: cell-based; settings: Homo sapiens, A498 (Renal Cancer), 1.00E-5 Molar, read-out: Growth Percent
# Method: as §1, §2
# KM12 = assay: NCI one-dose SRB assay; type: cell-based; settings: Homo sapiens, KM12 (Colon Cancer), 1.00E-5 Molar, read-out: Growth Percent
# Method: as §1, §2
# SNB-19 = assay: NCI one-dose SRB assay; type: cell-based; settings: Homo sapiens, SNB-19 (CNS Cancer), 1.00E-5 Molar, read-out: Growth Percent
# Method: as §1, §2
# HCC-2998 = assay: NCI one-dose SRB assay; type: cell-based; settings: Homo sapiens, HCC-2998 (Colon Cancer), 1.00E-5 Molar, read-out: Growth Percent
# Method: as §1, §2
# SNB-75 = assay: NCI one-dose SRB assay; type: cell-based; settings: Homo sapiens, SNB-75 (CNS Cancer), 1.00E-5 Molar, read-out: Growth Percent
# Method: as §1, §2
# SK-MEL-5 = assay: NCI one-dose SRB assay; type: cell-based; settings: Homo sapiens, SK-MEL-5 (Melanoma), 1.00E-5 Molar, read-out: Growth Percent
# Method: as §1, §2
# SK-MEL-2 = assay: NCI one-dose SRB assay; type: cell-based; settings: Homo sapiens, SK-MEL-2 (Melanoma), 1.00E-5 Molar, read-out: Growth Percent
# Method: as §1, §2
# HOP-62 = assay: NCI one-dose SRB assay; type: cell-based; settings: Homo sapiens, HOP-62 (Non-Small Cell Lung Cancer), 1.00E-5 Molar, read-out: Growth Percent
# Method: as §1, §2
# SF-268 = assay: NCI one-dose SRB assay; type: cell-based; settings: Homo sapiens, SF-268 (CNS Cancer), 1.00E-5 Molar, read-out: Growth Percent
# Method: as §1, §2
# SK-OV-3 = assay: NCI one-dose SRB assay; type: cell-based; settings: Homo sapiens, SK-OV-3 (Ovarian Cancer), 1.00E-5 Molar, read-out: Growth Percent
# Method: as §1, §2
# SF-295 = assay: NCI one-dose SRB assay; type: cell-based; settings: Homo sapiens, SF-295 (CNS Cancer), 1.00E-5 Molar, read-out: Growth Percent
# Method: as §1, §2
# UO-31 = assay: NCI one-dose SRB assay; type: cell-based; settings: Homo sapiens; for activity at 10 µM: UO-31 (Renal Cancer), 1.00E-5 Molar, one dose, read-out: Growth Percent
# Method: as §1
# The obtained data were reported as mean-graph of the percentage growth of the different treated tumour cells (Supplementary Materials). Exploration of results for this assay confirmed that the examined diamide-based benzenesulfonamides 5a–h had non-significant activity towards most NCI cancer cell lines.
# as §2
# hCA I = hCA I (Homo sapiens, UniProt P00915); assay: stopped-flow CO2 hydrase assay
# Chain of hCA I (P00915 whole entry): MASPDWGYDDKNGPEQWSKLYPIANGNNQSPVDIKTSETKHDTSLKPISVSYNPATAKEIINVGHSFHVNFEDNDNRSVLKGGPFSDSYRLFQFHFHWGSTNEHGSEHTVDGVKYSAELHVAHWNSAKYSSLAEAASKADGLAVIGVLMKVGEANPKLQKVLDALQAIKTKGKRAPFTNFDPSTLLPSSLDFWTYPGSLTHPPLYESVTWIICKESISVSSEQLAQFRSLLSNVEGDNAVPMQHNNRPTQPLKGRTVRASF
# From the text: as §3
# Chain of hCA XII (O43570 25-354): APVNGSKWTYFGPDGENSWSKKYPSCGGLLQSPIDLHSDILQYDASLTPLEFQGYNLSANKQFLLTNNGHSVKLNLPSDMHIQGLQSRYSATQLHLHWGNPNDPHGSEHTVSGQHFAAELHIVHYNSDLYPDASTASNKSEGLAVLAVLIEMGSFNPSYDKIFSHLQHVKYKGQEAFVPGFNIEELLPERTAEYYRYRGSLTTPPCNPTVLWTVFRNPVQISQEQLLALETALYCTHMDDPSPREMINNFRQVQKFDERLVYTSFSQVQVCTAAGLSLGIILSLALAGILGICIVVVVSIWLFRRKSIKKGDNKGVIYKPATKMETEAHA
Structure (SMILES),Ki (hCA XII) [nM],Selectivity ratio I/XII (hCA XII),Selectivity ratio II/XII (hCA XII),activity at 10 µM (K-562) [%],activity at 10 µM (SW-620) [%],activity at 10 µM (LOX IMVI) [%],activity at 10 µM (OVCAR-4) [%],activity at 10 µM (OVCAR-5) [%],activity at 10 µM (SK-MEL-28) [%],activity at 10 µM (MOLT-4) [%],activity at 10 µM (DU-145) [%],activity at 10 µM (NCI/ADR-RES) [%],activity at 10 µM (T-47D) [%],activity at 10 µM (COLO 205) [%],activity at 10 µM (U251) [%],activity at 10 µM (NCI-H522) [%],activity at 10 µM (MCF7) [%],activity at 10 µM (NCI-H23) [%],activity at 10 µM (MDA-MB-468) [%],activity at 10 µM (A498) [%],also measured
"COc1ccc(C=C(NC(=O)c2ccccc2)C(=O)Nc2ccc(S(N)(=O)=O)cc2)c(OC)c1 [Compound 5f, N-(1-(2,4-Dimethoxyphenyl)-3-oxo-3-((4-sulfamoylphenyl)amino)prop-1-en-2-yl)benzamide]",134,38.2,2.2,116,107,99.8,104,106,109,114,111,109,101,118,100,88.2,87.6,101,74.8,111,activity at 10 µM (KM12): 109%; activity at 10 µM (SNB-19): 102%; activity at 10 µM (HCC-2998): 110%; activity at 10 µM (SNB-75): 92.9%; activity at 10 µM (SK-MEL-5): 102%; activity at 10 µM (SK-MEL-2): 102%; activity at 10 µM (HOP-62): 117%; activity at 10 µM (SF-268): 114%; activity at 10 µM (SK-OV-3): 101%; activity at 10 µM (SF-295): 110%; activity at 10 µM (UO-31): 82.5%; Ki (hCA I): 5130 nM
"COc1ccc(C=C(NC(=O)c2ccccc2)C(=O)Nc2ccc(S(N)(=O)=O)cc2)cc1OC [Compound 5g, N-(1-(3,4-Dimethoxyphenyl)-3-oxo-3-((4-sulfamoylphenyl)amino)prop-1-en-2-yl)benzamide]",9.8,225.3,45.7,108,102,100,105,103,109,107,117,104,100,110,96.3,89.1,106,102,111,109,activity at 10 µM (KM12): 104%; activity at 10 µM (SNB-19): 100%; activity at 10 µM (HCC-2998): 106%; activity at 10 µM (SNB-75): 103%; activity at 10 µM (SK-MEL-5): 99.3%; activity at 10 µM (SK-MEL-2): 102%; activity at 10 µM (HOP-62): 102%; activity at 10 µM (SF-268): 104%; activity at 10 µM (SK-OV-3): 97.1%; activity at 10 µM (SF-295): 102%; activity at 10 µM (UO-31): 77.9%; Ki (hCA I): 2210 nM
"Cc1ccc(C=C(NC(=O)c2ccccc2)C(=O)Nc2ccc(S(N)(=O)=O)cc2)o1 [Compound 5h, N-(1-(5-Methylfuran-2-yl)-3-oxo-3-((4-sulfamoylphenyl)amino)prop-1-en-2-yl)benzamide]",57.9,141.2,2,96.1,106,94.9,86.2,100,114,88.9,99.9,92.2,85.8,108,88.9,85.7,97.1,98.9,98.7,99.8,"activity at 10 µM (KM12): 98.4%; activity at 10 µM (SNB-19): 96.4%; activity at 10 µM (HCC-2998): 104%; activity at 10 µM (SNB-75): 81.5%; activity at 10 µM (SK-MEL-5): 82.3%; activity at 10 µM (SK-MEL-2): 97.4%; activity at 10 µM (HOP-62): 95.2%; activity at 10 µM (SF-268): 100%; activity at 10 µM (SK-OV-3): 96.5%; activity at 10 µM (SF-295): 94.2%; activity at 10 µM (UO-31): 65.2%; inhibition at 10 µM (UO-31; UO-31, one dose 10^−5 M, read-out: percentage growth inhibition (GI%)): 35%; Ki (hCA I): 8180 nM"
